pIC50: −log10 of the molar value. Read-outs that look alike come from different tables or passages of the source.
Legend:
Test in all cases: Cytotoxicity in vitro in the presence and absence of legumain
Assay type in all cases: cell-based
HT29 = conditions: Homo sapiens, HT-29, HT29 cells
SUM149 = SUM149 cells
NCI H292 = conditions: Homo sapiens, NCI H292 cells

Work on `CC[C@@]1(O)C(=O)OCc2c1cc1n(c2=O)Cc2c-1nc1cc(F)c(C)c3c1c2[C@@H](NC(=O)[C@H](CC(N)=O)NC(=O)[C@H](C)N(C)C(=O)[C@H](C)NC(=O)Cc1ccncc1)CC3` [Compound 11, N-[(pyridin-4-yl)acetyl]-L-alanyl-N-methyl-L-alanyl-N^1-[(1S,9S)-9-ethyl-5-fluoro-9-hydroxy-4-methyl-10,13-dioxo-2,3,9,10,13,15-hexahydro-1H, 12H-benzo[de]pyrano [3′,4′:6,7]indolizino [1,2-b]quinolin-1-yl]-L-aspartamide] yielded a pIC50 (HT29; with legumain, read-out: HT29 IC50 w legumain) of under 7.00, a pIC50 (HT29; without legumain, read-out: HT29 IC50 w/o) of under 7.00 and a pIC50 (SUM149; with legumain, read-out: SUM149 IC50 w legumain) of 8.00 to 8.96. It also gave a pIC50 (SUM149; without legumain, read-out: SUM149 IC50 w/o) of 8.00 to 8.96, a pIC50 (NCI H292; with legumain, read-out: NCI H292 IC50 w legumain) of 7.00 to 7.96 and a pIC50 (NCI H292; without legumain, read-out: NCI H292 IC50 w/o) of 7.00 to 7.96.
